Measured values from article PMC12713628 (2025).
Where two headings read alike, the source gives them in different places.

How the values were obtained:
Assay in all cases: ITC
[1] = system: CS-R5MP (DNA, aptamer) GGCTCTCGGGACGACGGGGATTTTTGGTGCACTATGTGGTTCGTTCGGGGTGGGCTGCGTTCTCCATTCTGG; settings: one-site fit
[2] = system: CS-R7MP-T (DNA, aptamer) CGGGACGACGGGGATTTTATTTGCACTATGTGGCTCGTTCGGGGTGTGCTGCGTTCTCCATTCTGG; settings: one-site fit
[3] = system: AI-TES-R3R5HD-T (DNA, aptamer) GGACGACGGGGATTTGGGGTTTTCTATGTTTTTCGTCCTTTTTTTGCTGCGTTCTCCATTCTGG
[4] = one-site fit, aptamer identified from Figure 3e legend

For `C[C@]12CCC(=O)C=C1CC[C@@H]1[C@@H]2[C@@H](O)C[C@@]2(C)[C@H]1CC[C@]2(O)C(=O)CO`, the KD [1] was ~ 2.41 μM and the KD [2] was 5.1 µM.

`CC(=O)[C@H]1CC[C@H]2[C@@H]3CCC4=CC(=O)CC[C@]4(C)[C@H]3CC[C@]12C` showed a KD [3, 4] of 9.38 µM.

Work on `C[C@]12CC[C@@H]3c4ccc(O)cc4CC[C@H]3[C@@H]1CC[C@@H]2O` yielded a KD [3, 4] of 6.22 µM.

Compound `C[C@]12CC[C@H]3[C@@H](CCC4=CC(=O)CC[C@@]43C)[C@@H]1CC[C@@H]2O` has a KD [3] of 0.313 µM.
